The values below come from patent US9522917B2, “Bruton's tyrosine kinase inhibitors for hematopoietic mobilization” (Acerta Pharma B.V., priority 2012, dated 2016).

Each structure is given as a SMILES string.

The subject of test [1] is Human CD34+ hematopoietic progenitor cells. Kind of test: In vitro Transwell migration of human CD34+ cells towards an SDF-1 gradient. It counts as cell-based. The protocol: Human CD34+ hematopoietic progenitor cells were isolated from G-CSF mobilized peripheral blood and incubated with varying concentrations (0.1 μM, 1.0 μM and 10 μM) of the pyrimidine-based BTK inhibitor 1-[(3R)-3-[4-amino-3-(4-phenoxyphenyl)pyrazolo[3,4-d]pyrimidin-1-yl]piperidin-1-yl]prop-2-en-1-one for one hour at 37° C., 5% CO2 in serum free media (0.5% bovine serum albumin in RPMI media). Cells were then transferred to the upper chamber of a Transwell migration plate (5.0 um pore size, Costar Inc.). The lower chamber contained only serum-free media with 100 ng/ml SDF-1. Cells were incubated for five hours at 37° C., 5% CO2 to allow for cell migration from the upper chamber to the lower chamber. Cells that migrated into the lower chamber were counted using a hemocytometer.

Test [2] relates to stem cell migration. The following applies: cited from earlier work.

Consider `C=CC(=O)N1CCC[C@@H](n2nc(-c3ccc(Oc4ccccc4)cc3)c3c(N)ncnc32)C1` [Btk inhibitor, 1-[(3R)-3-[4-amino-3-(4-phenoxyphenyl)pyrazolo[3,4-d]pyrimidin-1-yl]piperidin-1-yl]prop-2-en-1-one], for which the “inhibition of stem cell migration” value in test [1] (0.1 μM, 1.0 μM and 10 μM, one hour preincubation, five hours migration to 100 ng/ml SDF-1, FIG. 1) is “inhibition of stem cell migration was seen at all tested concentrations”. Besides, the “activity at lower concentration than reported for plerixafor” value in test [1] (versus plerixafor (50 μM) in similar assays) is 500 fold.

On to `c1cc(CN2CCCNCCNCCCNCC2)ccc1CN1CCCNCCNCCCNCC1` [plerixafor], for which the “concentration reported for activity in similar assays” value in test [2] is 50 µM.
